Data reported in US7598341B2, “Molecules that selectively home to vasculature of premalignant or malignant lesions of the pancreas and other organs” (Burnham Institue for Medical Research, priority 2003, dated 2009).
Entries after “also recorded” stand apart in the source; their conditions may differ.

How the values were obtained:
[1] = system: bTC3-derived subcutaneous transplant tumor in a nude mouse; assay: Homing to bTC3 subcutaneous tumor; assay type: in vivo; conditions: FIG. 4A
Method: (§1) To determine whether phage identified to home to pancreatic tumors also home to other types of tumors, these phage were tested using animals having various types of tumors, including bTC3 subcutaneous tumor and MDA MB-435 subcutaneous tumor. bTC3 transplant tumors arise following subcutaneous inoculation of nude mice with cultured islet tumor-derived (bTC3) cells (Efrat et al., 1988). Since the vasculature of a subcutaneously grown bTC3 tumor derives from skin, we also tested another subcutaneous transplant tumor, arising from inoculation of the MDA-MB-435 human breast carcinoma cell line. Finally, K14-HPV16 mice, another well-studied transgenic mouse model of cancer that develop tumors of the squamous epithelial cells of the skin (Arbeit et al., 1994; Coussens et al., 1996), was used to compare RIP1-Tag2 islet tumors to a tumor with similar multistage pathogenesis arising in a different tissue.
(§2) Tumors were dissected from the ear or chest of K14-HPV16 mice. For the bTC3 allograft models, 10^6 bTC3 tumor cells (Efrat et al., 1988) were inoculated under the skin of the rear flank of nu/nu mice in a BALB/c background and allowed to grow until approximately 5 mm in size, and then used for experimental analysis. MDA-MB-435 xenograft models were generated by inoculating 10^6 tumor cells subcutaneously in the chest of nu/nu Balb/c mice. Tumors were used for the homing/binding experiments at 8-12 weeks after injection of the tumor cells.

[2] = system: squamous cell carcinoma in a K14-HPV16 mouse; assay: Homing to HPV tumor; assay type: in vivo; conditions: FIG. 4A
Method: as §1, §2

[3] = system: RIP1-Tag2 pancreatic tumor, bTC3-derived subcutaneous transplant tumor, K14-HPV16 squamous cell carcinoma; assay: Relative homing efficiency of individual phage in various tumor models (FIG. 4A); assay type: in vivo, mouse; conditions: phage from the RIP1-Tag2 tumor screen
Method: as §1, §2
FIG. 4A is bar graph showing homing efficiency of individual phage to a pancreatic tumor in a RIP1-Tag2 mouse, a bTC3-derived subcutaneous transplant tumor in a nude mouse, and a squamous cell carcinoma in a K14-HPV16 mouse.

[4] = system: RIP1-Tag2 angiogenic islets and tumors; assay: In vivo homing of phage (pools and individual phage) in RIP1-Tag2 mice; design: species or system mouse; conditions: phage-displayed peptide, i.v., FIG. 1D, with ex vivo binding patterns
Method: For in vivo selection of phage that home specifically to premalignant lesions and malignant tumors, the ex vivo pre-selected phage pool was injected intravenously into 12 week old RIP1-Tag2 mice through the tail vein, allowed to circulate for 7 minutes and heart-perfused with PBS to remove unbound intravascular phage. As the vasculature is preferentially available for the phage to bind in this selection, there is an enrichment of phage that bind to the endothelium of the target tissue.
The RIP1-Tag2 lesions and control tissues (brain, kidney, spleen, lung, ‘white’ pancreas lacking hemorrhagic lesions and liver were excised to allow for comparison of homing efficiencies. Cell suspensions were prepared by mechanical disruption of the tissues. Tissues were washed to remove unbound phage, and the bound phage rescued and amplified by adding E. coli. The phage pool was re-injected into mice at a similar disease stage, and the cycle repeated. In each experiment, non-recombinant control phage were used as a control for relative selectivity.
Sets of 96 phage clones were randomly collected from each homing phage population that selectively homed to premalignant angiogenic islets or pancreatic tumor cells. Peptide-encoding DNA inserts from collected phage clones were amplified by PCR, and the PCR products sequenced. Phage representing the most frequently appearing peptide motifs were individually tested for their ability to selectively home to the lesions on which they were selected, relative to other stages in the tumorigenesis pathway and to control organs. Six of the phage selected for further analysis were from the tumor screen (referred to as KAA, RGR, RSR, VGVA, VGVG and KAR), and one (EYQ) was picked from the angiogenic screen.

[5] = system: RIP1-Tag2 angiogenic islets and tumors; assay: Localization of fluorescein-conjugated peptides after intravenous injection; assay type: in vivo, mouse; conditions: for homing selectivity of purified peptides: i.v. into 8-week or 12-week old RIP-Tag2 mice; for homing to normal islets, kidney, brain, liver, lung or spleen: purified peptides i.v.; for localization in RIP1-Tag2 angiogenic islets / localization in RIP1-Tag2 tumors / localization in normal islets: fluorescein-conjugated peptide i.v., 7 minutes circulation, FIG. 2
Method: Fluorescein-conjugated peptides corresponding to phage insert sequences were synthesized using an automated peptide synthesizer with standard solid-phase fluorenylmethoxycarbonyl (Fmoc) chemistry. […] of each individual fluorescein-conjugated peptide was injected intravenously into the tail vein of RIP1-Tag2 mice at 8 or 12 weeks of age, and into normal BL/6 mice. The peptide was allowed to circulate for 7 minutes, followed by heart perfusion first with PBS and then with Zn-buffered formalin. The RIP1-Tag2 pancreas and control organs (brain, kidney, liver, lung and spleen) were removed, fixed for one hour in formalin, washed with 1×PBS, placed in 30% sucrose for several hours, washed with 1×PBS, and embedded in OCT (Tissue-Tek). Each peptide was injected into at least three individual RIP1-Tag2 or normal mice at each of the different stages. To examine the localization of injected fluorescein-conjugated peptides, frozen sections ([…] thick) were cut on a cryostat, mounted in Vectashield Mounting Medium with DAPI (Vector Laboratories) and visualized under an inverted fluorescent microscope or a confocal microscope (Zeiss LSM 510 META).

[6] = system: endothelial cell and pericyte markers (MECA-32, NG2); assay: Co-localization of fluorescein-conjugated peptides with vascular markers; assay type: in vivo, mouse; conditions: fluorescein-conjugated peptide i.v.; for co-localization with endothelial cell and pericyte markers in RIP1-Tag2 islet lesions: MECA-32, NG2, FIG. 3
Method: To confirm that intravenous administration of phage libraries selects for phage carrying peptides that bind to endothelial molecules specific for the target vasculature, tissues were collected following i.v. infusion with the various fluorescein-conjugated peptides, sectioned, and evaluated with endothelial cell markers.
For immunohistochemistry, frozen slides were pre-incubated with blocking buffer (1×PNB from NEN Biosciences) for one hour, washed several times in 1×PBS and incubated with the primary antibody of interest overnight at 4° C. The cell-specific antibodies used were rat monoclonal anti-mouse CD31 (1:200; BD Pharmingen), rat monoclonal anti-mouse MECA-32 (1:200; BD Pharmingen), rabbit polyclonal anti-mouse NG2 (1:200; Chemicon), and rat monoclonal anti-mouse PDGFRb (CD140b) (1:200; eBioscience). The corresponding secondary antibodies; Cy-3 donkey anti-rabbit IgG and Rhodamine Red donkey anti-rat IgG (Jackson ImmunoResearch), were used at a 1:200 dilution and incubated for one hour at room temperature. The following species-matched immunoglobulins were used as negative controls; rabbit IgG (Vector Laboratories) and rat IgG (Jackson ImmunoResearch) at a 1:200 dilution. The slides were washed several times in 1×PBS and mounted in Vectashield Mounting Medium with DAPI (Vector Laboratories). Hematoxylin and eosin (H&E) staining was performed for histological grading of adjacent sections by standard methods, and lesions were graded as previously described (Lopez and Hanahan, 2002).
The primary analysis involved immunostaining with a mouse pan-endothelial cell antigen (MECA-32) antibody that recognizes a dimer of 50-55 kDa protein subunits present on all endothelial cells (Hallman et al., 1995; Leppink et al., 1989) (FIG. 3 B,C,H,I,N,O). Additional analyses involved immunostaining to reveal CD31/PE-CAM, or systemic infusion of a fluorescent-labeled lectin that binds to the endothelial lumen. In addition, tissue sections from peptide-infused mice were stained with an antibody recognizing NG2, a marker of the neovascular pericytes (Schlingemann et al., 1990, 1991) (FIG. 3 E,F,K,L,Q,R).

[7] = system: MDA MB-435 subcutaneous tumor; assay: Homing to MDA-MB-435 subcutaneous tumor; assay type: in vivo, mouse; conditions: fluorescein-conjugated peptide i.v., FIG. 4B
Method: as §1, §2

VGVGEWSV
homing to TC3 tumor [1]: homed
homing to HPV tumor [2]: did not home appreciably
relative homing efficiencies in the various tumor models (category) [3]: more general homing to other tumors in addition to RIP1-Tag2
homing class of individual phage (angiogenic islets or tumors in vivo) [4]: tumor-selective

CKGAKAR
homing selectivity of purified peptides [5]: malignant solid tumors
homing to normal islets, kidney, brain, liver, lung or spleen [5]: did not appreciably home
homing to TC3 tumor [1]: did not home appreciably
homing to HPV tumor [2]: homed
relative homing efficiencies in the various tumor models (category) [3]: more general homing to other tumors in addition to RIP1-Tag2
homing class of individual phage (angiogenic islets or tumors in vivo) [4]: tumor-selective

FRVGVADV [linear homing peptide; homes to both types of lesion]
homing selectivity of purified peptides [5]: both angiogenic islets and tumors
homing to normal islets, kidney, brain, liver, lung or spleen [5]: did not appreciably home
homing to TC3 tumor [1]: did not home appreciably
homing to HPV tumor [2]: did not home appreciably
relative homing efficiencies in the various tumor models (category) [3]: selectively home to RIP1-Tag2 tumors
homing class of individual phage (angiogenic islets or tumors in vivo) [4]: home to both types of lesion

CEYQLDVE [linear homing peptide]
homing selectivity of purified peptides [5]: highly selective for premalignant angiogenic islets
homing to normal islets, kidney, brain, liver, lung or spleen [5]: did not appreciably home
homing class of individual phage (angiogenic islets or tumors in vivo) [4]: angiogenic islet-selective

CRSRKG [linear homing peptide]
localization in RIP1-Tag2 angiogenic islets [5]: abundant accumulation
localization in RIP1-Tag2 tumors [5]: little or no localization
localization in normal islets [5]: little or no localization
homing selectivity of purified peptides [5]: highly selective for premalignant angiogenic islets
homing to normal islets, kidney, brain, liver, lung or spleen [5]: did not appreciably home
homing to TC3 tumor [1]: homed
co-localization with MECA-32 or NG2 in adjacent exocrine pancreas or normal pancreatic islets [6]: no co-localization
co-localization with endothelial cell and pericyte markers in RIP1-Tag2 islet lesions [6]: some co-localization both with endothelial cell and pericyte markers; also recorded: co-localized both with the endothelial cell and pericyte markers
homing to MDA tumor [7]: did not home appreciably
homing to HPV tumor [2]: did not home appreciably
homing class of individual phage (angiogenic islets or tumors in vivo) [4]: angiogenic islet-selective

CKAAKNK
localization in RIP1-Tag2 angiogenic islets [5]: little or no localization
localization in RIP1-Tag2 tumors [5]: abundant localization
localization in normal islets [5]: little or no localization
homing selectivity of purified peptides [5]: malignant solid tumors
homing to normal islets, kidney, brain, liver, lung or spleen [5]: did not appreciably home
homing to TC3 tumor [1]: did not home appreciably
co-localization with MECA-32 or NG2 in adjacent exocrine pancreas or normal pancreatic islets [6]: no co-localization
co-localization with endothelial cell and pericyte markers in RIP1-Tag2 islet lesions [6]: some co-localization both with endothelial cell and pericyte markers; also recorded: co-localized both with the endothelial cell and pericyte markers
homing to MDA tumor [7]: homed
homing to HPV tumor [2]: did not home appreciably
relative homing efficiencies in the various tumor models (category) [3]: selectively home to RIP1-Tag2 tumors
homing class of individual phage (angiogenic islets or tumors in vivo) [4]: tumor-selective
